Test results taken from patent US20090047223A1, “Improvements in or Related to Organic Compoounds” (GIVAUDAN SA, priority 2005, published 2009).
Structures can show the parent of a compound that is named as a salt. Where two headings read alike, the source gives them in different places.

How the values were obtained:
[1] = Reduction of methanethiol (MeSH) in headspace, phosphate buffer pH 7, GC; settings: for reactivity towards MeSH / ability to bind MeSH (in words): aqueous environment; for % reduction of MeSH in the headspace: MeSH 100 μM, phosphate buffer pH 7, 1 h
Description: (§1) The compounds listed in Table 1 are dissolved to a final concentration of 100 μM, 200 μM and 500 μM in 1 ml of phosphate buffer at pH 7 in a closed GC-headspace vial. MeSH is added to a final concentration of 100 μM and the mixture is equilibrated for 1 h. Samples are heated to 75° C. and 1 ml of the headspace above the reaction mixture is injected onto a column suitable for separation of sulphur compounds (SPW1-sulfur, Supelco). The temperature program is set to 1 min initial temperature at 50° C., heating at a rate of 10° C./min to 100° C. and further heating at 20° C./min to 200° C. The headspace level of MeSH is compared to a blank sample, i.e. a sample without the active compound.

[2] = Reduction of allyl mercaptan, monobromobimane fluorescence; settings: 200 μM allyl mercaptan-solution, pH 7, 15 min
Description: The compounds given in Table 2 are dissolved in DMSO to a final concentration of 100 mM and serially diluted in the same solvent. Aliquots of the solutions of different active compounds (2.5 μl) are distributed to individual wells of a microtiter plate. 100 μl of a 200 μM allyl mercaptan-solution (in 50 mM phosphate buffer, pH 7) are added to each well and the plates are immediately sealed. After 15 min of incubation, the unreacted allyl mercaptan is derivatised by adding to each well of the microtiter plate 100 μl of a monobromobimane (obtained from Fluka, Buchs, Switzerland) stock solution (0.5 mM in 1 M NaCO3, pH 8.8). After 10 min the fluorescence in the wells of the microtiter plates is measured on a Flex-station (Molecular devices, Sunnyvale, Calif., USA) with an excitation wavelength of 385 nm and an emission wavelength of 480 nm. After the fluorescence determination, from all the wells the blank value containing only buffer and DMSO is subtracted. The fluorescence of control wells with allyl mercaptan and DMSO only is then compared to the fluorescence in wells containing potential allyl mercaptan trapping agents (compound 1 to 5) to calculate the inhibition in percent.

[3] = Reduction of methanethiol (MeSH) in saliva, headspace GC; settings: compound 500 μM, MeSH 200 μM
Description: as §1
The compounds given in Table 3 are dissolved in GC-headspace vials in saliva donations pooled form four donors at a concentration of 500 μM. After a conditioning period of 1 and 2.5 h respectively, MeSH is added at a concentration of 200 μM, and 1 hour later MeSH level in the headspace is determined as described in Example 8.

[4] = 500 μM, pH 7
Description: Samples of 0.50 ml are withdrawn at the indicated time intervals and extracted with MTBE (0.50 ml). The amount of released ethyl vanillin is determined by quantitative GC-analysis.

[5] = after 2½ h conditioning in pooled saliva
[6] = after 1 h conditioning in pooled saliva

Compound | reactivity towards MeSH / ability to bind MeSH (in words) [1] | % reduction of MeSH in the headspace ([1]; compound 100 μM) | % reduction of MeSH in the headspace ([1]; compound 200 μM) | % reduction of MeSH in the headspace ([1]; compound 500 μM) | % reduction of allyl mercaptan ([2]; test concentration 31.25 μM) | % reduction of allyl mercaptan ([2]; test concentration 62.5 μM) | % reduction of allyl mercaptan ([2]; test concentration 125 μM) | % reduction of allyl mercaptan ([2]; test concentration 250 μM) | % reduction of allyl mercaptan ([2]; test concentration 500 μM) | % reduction of allyl mercaptan ([2]; test concentration 1000 μM) | Reduction of MeSH (%) [3, 5] | Reduction of MeSH (%) [3, 6] | % of theory (released ethyl vanillin) ([4]; 30 min) | conc. of released ethy vanillin ([4]; 30 min) | % of theory (released ethyl vanillin) ([4]; 60 min) | conc. of released ethy vanillin ([4]; 60 min) | % of theory (released ethyl vanillin) ([4]; 120 min) | conc. of released ethy vanillin ([4]; 120 min)
CC1CCC(C(C)C)C(OC(=O)/C=C/C(=O)O)C1 (stereo not shown) [B, reference compound] | low reactivity | 11.9% | 1.7% | 0% |  |  |  |  |  |  |  |  |  |  |  |  |  | 
CC1CCC(C(C)C)C(OC(=O)/C=C/C(=O)OCC(O)CO)C1 (stereo not shown) [Compound 1, 2,3-Dihydroxypropyl 2-isopropyl-5-methylcyclohexyl fumarate] |  | 81.5% | 73.7% | >90% | 0.1% | 9.9% | 22.5% | 43.2% | 68.8% | 86.0% | 40.5% | 72.7% |  |  |  |  |  | 
CCOC(=O)/C=C/C(=O)Oc1c(C)occc1=O [Compound 2, Ethyl 2-methyl-4-oxo-4H-pyran-3-yl fumarate] |  | >92% | >92% | >90% | 11.1% | 31.9% | 65.3% | 98.4% | 100.0% | 100.0% | 32.5% | 75.9% |  |  |  |  |  | 
CCOC(=O)/C=C/C(=O)Oc1ccc(C=O)cc1OCC [Compound 3, 2-Ethoxy-4-formylphenyl ethyl fumarate] |  | >90% | >92% | >90% | 12.8% | 32.7% | 74.5% | 99.8% | 100.0% | 100.0% | 73.3% | 36.2% | 38% | 192 µM | 47% | 235 µM | 62% | 310 µM
CCOC(=O)/C=C/C(=O)Oc1ccccc1C(=O)OC [Compound 4, Methyl 2-((E)-3-(ethoxycarbonyl)acryloyloxy)benzoate] |  | >90% | >92% | >90% | 14.4% | 32.3% | 67.6% | 95.3% | 99.8% | 100.0% | 74.3% | 28.1% |  |  |  |  |  | 
CC1CCC(C(C)C)C(OC(=O)/C=C/C(=O)OCC(O)C(O)C(O)C(O)CO)C1 (stereo not shown) [Compound 5, 2,3,4,5,6-Pentahydroxyhexyl 2-isopropyl-5-methylcyclohexyl fumarate] |  | 71.6% |  | >90% | 1.0% | 8.1% | 19.3% | 38.4% | 64.4% | 89.3% | 75.1% | 48.2% |  |  |  |  |  | 
CCOC(=O)/C=C/C(=O)OCC=Cc1ccccc1 [Compound 6, Cinnamyl Ethyl Fumarate] |  | 45.8% |  | 85% |  |  |  |  |  |  |  |  |  |  |  |  |  | 
CC/C=C\CCOC(=O)/C=C/C(=O)OCC [Compound 7, Ethyl (Z)-hex-3-enyl fumarate] |  | 33% | 39.2% | 54.1% |  |  |  |  |  |  |  |  |  |  |  |  |  | 
CCCCCCOC(=O)/C=C/C(=O)OCCCCCC [Dihexyl fumarate (A), Dihexyl fumarate, reference compound] | very low reactivity | 4.3% | 1.9% | 10.9% |  |  |  |  |  |  |  |  |  |  |  |  |  | 
